From patent US20230312587A1, “PTERIDINONE COMPOUNDS AND USES THEREOF” (Vertex Pharmaceutical Incorporated, priority 2018, published 2023)
Read-outs that look alike come from different tables or passages of the source.

How the values were obtained:
HepG2 WFS1 KO = assay: In vitro cell viability (CellTiter-Glo), HepG2 WFS1 KO; type: cell-based; settings: for IC50: Homo sapiens, 96 hours
From the text: A double cleavage strategy was employed to remove large fragments from the WFS1 locus. Suitable target sites in WFS1 exon 8 were first selected using CRISPR design software to rank suitable target sites and computationally predict off-target sites for each intended target. Six top guide RNA sequences are identified and screened for activity using the Surveyor Mutation Detection Kit (Integrated DNA Technologies). Then, the best 2 guide RNAs were cloned into GeneArt OFP CRISPR nuclease vectors (Thermofisher, Cat #A21174) separately and co-transfected into HepG2 cells using nucleofection (4D Nucleofector X, Lonza). Cells were sorted by FACS 48 hrs later to enrich for the OFP positive cell population. The OFP positive cell population were plated into 96-well plates at 0.5-5 cells/well to isolate clonal cell lines. After allowing cells to expand for 2-3 weeks, plates were inspected for presence of colonies. When colonies became more than 70% confluent, they were dissociated with trypsin and were further expanded. Cell clones with homozygous double cleavage of WFS1 exon 8 were detected with PCR and confirmed with DNA sequencing.
HEK293 cells containing empty pCLPCx vector (HEK293 empty), HEK293 cells stably over-expression WFS1 (HEK293 WFS1), HepG2, and HepG2 cells where WFS1 was depleted via CRISPR/Cas9 (HepG2 WFS1 KO) cells were plated into 96-well black plates (Corning, product #3904) in 100 microliters of complete DMEM cell culture media [DMEM (Life Technologies, product #11960-051) media supplemented with 10% FBS (Hyclone, catalog #SH30071.03), antimycotic/antibiotic (Life Technologies, product #15240-062), and Glutamax (Life Technologies, product #35050-061)] at 1,000 (HEK293) or 5,000 (HepG2) cells per well. Cells were allowed to attach and grow overnight, after which compounds are added at various concentrations. Cell viability was assessed 96 hrs after compound addition with CellTiter-Glo reagent (Promega, catalog #G7570) according to manufacturer's protocol and measurement on a Pherastar luminescence plate reader (BMG Labtech).
To determine the effect of WFS1 depletion on compound mediated inhibition of cell viability, parental HepG2 cells and HepG2 cells where WFS1 was deleted by CRISPR/Cas9 were exposed to increasing concentrations of either Compound 136 or Compound 253 for 96 hours after which time viability was determined using Cell Titer Glo reagent (Promega). […] The IC50s for the viability of both the HepG2 parental and WFS1 knockout cells are summarized in Table 47: A<0.5 μM; 0.5 μM≤<2.0 μM; 2.0 μM≤C<10.0 μM; D≥[…].

[1] = molecular target: HEK293 membranes over-expressing WFS-1 (Homo sapiens (Human), UniProt O76024); assay: Radioligand displacement assay (tritiated Compound 136 probe); type: binding; settings: displacement of tritiated Compound 136
Outline: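 WFS-1-overexpressing HEK293 membranes were preincubated 10 min with compound, then tritiated probe was added for 90 min at room temperature. Bound probe was collected by filtration on PEI-pretreated GF/B filters, washed and scintillation-counted. IC50 came from a 3-parameter fit of bound probe vs compound concentration.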

[2] = HepG2 WFS1 knockout, read-out: HepG2 WFS1 KO viability

Chain of HEK293 membranes over-expressing WFS-1 (O76024 whole entry): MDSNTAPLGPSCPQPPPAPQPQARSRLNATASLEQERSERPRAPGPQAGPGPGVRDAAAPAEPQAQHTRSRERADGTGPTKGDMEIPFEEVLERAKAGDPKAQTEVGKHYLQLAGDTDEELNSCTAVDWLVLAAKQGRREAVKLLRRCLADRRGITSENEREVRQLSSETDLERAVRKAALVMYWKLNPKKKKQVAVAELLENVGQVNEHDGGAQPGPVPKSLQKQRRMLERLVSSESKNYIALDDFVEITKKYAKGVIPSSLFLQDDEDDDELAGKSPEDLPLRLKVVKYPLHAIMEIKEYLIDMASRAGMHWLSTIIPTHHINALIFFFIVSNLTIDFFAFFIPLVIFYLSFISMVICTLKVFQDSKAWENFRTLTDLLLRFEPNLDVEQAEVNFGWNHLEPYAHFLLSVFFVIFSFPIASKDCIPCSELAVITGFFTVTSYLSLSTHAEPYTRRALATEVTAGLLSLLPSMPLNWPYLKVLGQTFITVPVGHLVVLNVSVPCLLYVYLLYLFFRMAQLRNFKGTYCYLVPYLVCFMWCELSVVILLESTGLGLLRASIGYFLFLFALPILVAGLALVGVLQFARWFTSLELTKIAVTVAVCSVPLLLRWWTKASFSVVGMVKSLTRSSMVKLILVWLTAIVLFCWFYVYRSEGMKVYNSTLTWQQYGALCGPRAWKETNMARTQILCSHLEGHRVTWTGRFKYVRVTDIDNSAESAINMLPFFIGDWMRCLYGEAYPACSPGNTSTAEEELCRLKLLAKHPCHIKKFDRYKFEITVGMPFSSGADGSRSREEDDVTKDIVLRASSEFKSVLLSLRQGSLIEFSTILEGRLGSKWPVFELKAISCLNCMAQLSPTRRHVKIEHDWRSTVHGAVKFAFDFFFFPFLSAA

Row | Compound | IC50 [1] [µM] | other results
1 | Cc1nc(NCc2cnn(CCc3ccc(F)cc3)c2)nc2c1N(C)C(=O)[C@H](C)N2C [Compound 8, (7S)-2-(((1-(4-fluorophenethyl)-1H-pyrazol-4-yl)methyl)amino)-4,5,7,8-tetramethyl-7,8-dihydropteridin-6(5H)-one] | 0.6 to 3 | IC50 (HepG2 WFS1 KO; [2]): ≥ 10 µM
2 | Cc1nc(NCc2cnn(Cc3ccc(C(F)(F)F)nc3C(C)O)c2)nc2c1NC(=O)[C@H](C)N2C (stereo partly drawn) [Compound 419, (7S)-2-(((1-((2-((S)-1-hydroxyethyl)-6-(trifluoromethyl)pyridin-3-yl)methyl)-1H-pyrazol-4-yl)methyl)amino)-4,7,8-trimethyl-7,8-dihydropteridin-6(5H)-one] | 0.06 to 0.6 | IC50 (HepG2 WFS1 KO; [2]): ≥ 10 µM
3 | Cc1nc(NCc2cn(Cc3ccc(C(F)(F)F)nc3)cn2)nc2c1NC(=O)[C@H](C)N2C [Compound 428, (S)-4,7,8-trimethyl-2-(((1-((6-(trifluoromethyl)pyridin-3-yl)methyl)-1H-imidazol-4-yl)methyl)amino)-7,8-dihydropteridin-6(5H)-one] | ≥ 3 | IC50 (HepG2 WFS1 KO; [2]): ≥ 10 µM
4 | Cc1cc(F)ncc1Cn1cc(CNc2nc(C)c3c(n2)N(C)[C@@H](C(C)C)C(=O)N3)cn1 [Compound 423, (7S)-2-(((1-((6-fluoro-4-methylpyridin-3-yl)methyl)-1H-pyrazol-4-yl)methyl)amino)-7-isopropyl-4,8-dimethyl-7,8-dihydropteridin-6(5H)-one] | 0.06 to 0.6 | IC50 (HepG2 WFS1 KO; [2]): ≥ 10 µM
5 | Cc1nc(NCc2cnn(CC3CCC3)c2)nc2c1N(C)C(=O)[C@H](C)N2C [Compound 7, (7S)-2-(((1-(cyclobutylmethyl)-1H-pyrazol-4-yl)methyl)amino)-4,5,7,8-tetramethyl-7,8-dihydropteridin-6(5H)-one] | 0.06 to 0.6 | IC50 (HepG2 WFS1 KO; [2]): ≥ 10 µM
6 | Cc1nc(NCc2cnn(Cc3cncc(F)c3)c2)nc2c1NC(=O)[C@H](C(C)C)N2C [Compound 415, (7S)-2-(((1-((5-fluoropyridin-3-yl)methyl)-1H-pyrazol-4-yl)methyl)amino)-7-isopropyl-4,8-dimethyl-7,8-dihydropteridin-6(5H)-one] | < 0.06 | IC50 (HepG2 WFS1 KO; [2]): ≥ 10 µM
7 | Cc1nn(C)cc1Cn1cc(CNc2nc(C)c3c(n2)N(C)[C@@H](C)C(=O)N3)cn1 [Compound 139, (7S)-2-(((1-((1,3-dimethyl-1H-pyrazol-4-yl)methyl)-1H-pyrazol-4-yl)methyl)amino)-4,7,8-trimethyl-7,8-dihydropteridin-6(5H)-one] | 0.6 to 3 | IC50 (HepG2 WFS1 KO; [2]): ≥ 10 µM
8 | Cc1nc(N[C@H]2C[C@H](Oc3cc(F)c(F)c(F)c3)C2)nc2c1N(C)C(=O)[C@H](C)N2C [Compound 253, (7S)-4,5,7,8-tetramethyl-2-((trans-3-(3,4,5-trifluorophenoxy)cyclobutyl)amino)-7,8-dihydropteridin-6(5H)-one] | < 0.06 | IC50 (HepG2 WFS1 KO; cell viability, HepG2 WFS1 KO, Cell Titer Glo, read-out: IC50): 4.4 µM; IC50 (HepG2 WFS1 KO; cell viability, HepG2 WFS1 KO, read-out: IC50 class): 2 to 10 µM; shift in IC50 on depletion of WFS1 from HepG2 cells (HepG2 WFS1 KO; cell viability, WFS1 KO vs parental HepG2, 96 hours): greater than 5 fold
9 | Cc1nc(NCc2cnn(Cc3cc(C(F)(F)F)nn3C)c2)nc2c1NC(=O)[C@H](C)N2C [Compound 160, (7S)-4,7,8-trimethyl-2-(((1-((1-methyl-3-(trifluoromethyl)-1H-pyrazol-5-yl)methyl)-1H-pyrazol-4-yl)methyl)amino)-7,8-dihydropteridin-6(5H)-one] | 0.06 to 0.6 | –
10 | Cc1nc(NCc2cnn([C@H]3CCN(C4CCC(F)(F)CC4)C3)c2)nc2c1NC(=O)[C@H](C)N2C [Compound 142, (7S)-2-(((1-((S)-1-(4,4-difluorocyclohexyl)pyrrolidin-3-yl)-1H-pyrazol-4-yl)methyl)amino)-4,7,8-trimethyl-7,8-dihydropteridin-6(5H)-one] | 0.06 to 0.6 | –
11 | Cc1nc(N[C@H]2C[C@H](Sc3ccc(F)cc3)C2)nc2c1N(C)C(=O)[C@H](C)N2C [Compound 307, (7S)-2-((trans-3-((4-fluorophenyl)thio)cyclobutyl)amino)-4,5,7,8-tetramethyl-7,8-dihydropteridin-6(5H)-one] | 0.06 to 0.6 | –
12 | CCN1c2nc(NCc3cnn(Cc4ccc(C(F)(F)F)nc4)c3)nc(C)c2NC(=O)[C@@H]1C [Compound 395, (7S)-8-Ethyl-4,7-dimethyl-2-(((1-((6-(trifluoromethyl)pyridin-3-yl)methyl)-1H-pyrazol-4-yl)methyl)amino)-7,8-dihydropteridin-6(5H)-one] | 0.06 to 0.6 | –
13 | Cc1nc(NCc2ccc(-n3cc(C(F)(F)F)cn3)nc2)nc2c1NC(=O)[C@H](C)N2C [Compound 143, (S)-4,7,8-trimethyl-2-(((6-(4-(trifluoromethyl)-1H-pyrazol-1-yl)pyridin-3-yl)methyl)amino)-7,8-dihydropteridin-6(5H)-one] | 0.06 to 0.6 | –
14 | Cc1nc(NCc2cnn(Cc3ccc(C(F)(F)F)nc3)c2)nc2c1NC(=O)[C@H](C)N2C(C)C [Compound 385, (7S)-8-isopropyl-4,7-dimethyl-2-(((1-((6-(trifluoromethyl)pyridin-3-yl)methyl)-1H-pyrazol-4-yl)methyl)amino)-7,8-dihydropteridin-6(5H)-one] | < 0.06 | –
15 | (7S)-4,7,8-trimethyl-2-((trans-3-(3,4-difluorophenoxy)cyclobutyl)amino)-7,8-dihydropteridin-6(5H)-one [Compound 251] | 0.06 to 0.6 | –
16 | Cc1nc(N[C@H]2C[C@H](Oc3ccnc(C(F)(F)F)c3)C2)nc2c1NC(=O)[C@H](C)N2C [Compound 335, (7S)-4,7,8-trimethyl-2-((trans-3-((2-(trifluoromethyl)pyridin-4-yl)oxy)cyclobutyl)amino)-7,8-dihydropteridin-6(5H)-one] | < 0.06 | –
17 | Cc1nc(NCc2cnn(Cc3cccc(C(C)C)c3)c2)nc2c1NC(=O)[C@H](C)N2C [Compound 80, (7S)-2-(((1-(3-isopropylbenzyl)-1H-pyrazol-4-yl)methyl)amino)-4,7,8-trimethyl-7,8-dihydropteridin-6(5H)-one] | < 0.06 | –
18 | Cc1nc(NCc2cnn(Cc3cc(F)c(F)c(F)c3)c2)nc2c1NC(=O)[C@H](C)N2C [Compound 122, (7S)-4,7,8-trimethyl-2-(((1-(3,4,5-trifluorobenzyl)-1H-pyrazol-4-yl)methyl)amino)-7,8-dihydropteridin-6(5H)-one] | < 0.06 | –
19 | Cc1nc(N[C@H]2CC[C@H](n3ccc(C(F)(F)F)n3)C2)nc2c1NC(=O)[C@H](C)N2C (single isomer, unassigned) [Compound 310] | 0.6 to 3 | –
20 | Cc1nc(NCc2cnn(Cc3ccc(F)nc3)c2)nc2c1NC(=O)[C@H](C)N2C [Compound 77] | 0.06 to 0.6 | –
21 | Cc1nc(NCc2cnn(Cc3cc(C(F)(F)F)nn3C)c2)nc2c1NC(=O)[C@H](C1CC1)N2C [Compound 396, (7S)-7-Cyclopropyl-4,8-dimethyl-2-(((1-((1-methyl-3-(trifluoromethyl)-1H-pyrazol-5-yl)methyl)-1H-pyrazol-4-yl)methyl)amino)-7,8-dihydropteridin-6(5H)-one] | 0.06 to 0.6 | –
22 | Cc1cc(F)ncc1Cn1cc(CNc2nc(C)c3c(n2)N(C)[C@@H](C)C(=O)N3)cn1 [Compound 94, (7S)-2-(((1-((6-fluoro-4-methylpyridin-3-yl)methyl)-1H-pyrazol-4-yl)methyl)amino)-4,7,8-trimethyl-7,8-dihydropteridin-6(5H)-one] | 0.06 to 0.6 | –
23 | Cc1nc(N[C@H]2C[C@H](Sc3cc(F)c(F)c(F)c3)C2)nc2c1NC(=O)[C@H](C)N2C [Compound 329, (7S)-4,7,8-trimethyl-2-((trans-3-((3,4,5-trifluorophenyl)thio)-cyclobutyl)amino)-7,8-dihydropteridin-6(5H)-one] | 0.06 to 0.6 | –
24 | Cc1nc(N[C@H]2C[C@@H](Sc3cc(F)c(F)c(F)c3)C2)nc2c1NC(=O)[C@H](C)N2C [Compound 332, (7S)-4,7,8-trimethyl-2-((cis-3-((3,4,5-trifluorophenyl)thio)cyclobutyl)amino)-7,8-dihydropteridin-6(5H)-one] | 0.06 to 0.6 | –
25 | Cc1nc(NCc2cnn(Cc3ccc(C(F)(F)F)nc3)c2)nc2c1NC(=O)[C@H](C1CC1)N2C [Compound 386, (7S)-7-Cyclopropyl-4,8-dimethyl-2-(((1-((6-(trifluoromethyl)pyridin-3-yl)methyl)-1H-pyrazol-4-yl)methyl)amino)-7,8-dihydropteridin-6(5H)-one] | 0.06 to 0.6 | –
